From patent US9682953B2, “Amide compounds, compositions and applications thereof” (Advinus Therapeutics Limited, priority 2011, dated 2017)
Read-outs that look alike come from different tables or passages of the source.

Tests used:
[1] = molecular target: human Fatty Acid Amide Hydrolase (FAAH) (Homo sapiens (Human), UniProt O00519); assay: biochemical; settings: for inhibition at 0.1 µM: read-out: hFAAH % inhibition at 100 nM, 100 nM (tier I); for IC50: read-out: hFAAH IC50
[2] = molecular target: rat Fatty Acid Amide Hydrolase (FAAH) (Rattus norvegicus (Rat), UniProt P97612); assay: FAAH in vitro fluorescence assay (AAMCA hydrolysis), rat enzyme; type: biochemical; settings: rat FAAH; for inhibition at 0.1 µM: read-out: rFAAH % inhibition at 100 nM; for inhibition at 0.1 µM / rFAAH % inhibition at 100 nM: 100 nM (tier I); for IC50: read-out: rFAAH IC50
Chain of rat Fatty Acid Amide Hydrolase (FAAH) (P97612 30-579): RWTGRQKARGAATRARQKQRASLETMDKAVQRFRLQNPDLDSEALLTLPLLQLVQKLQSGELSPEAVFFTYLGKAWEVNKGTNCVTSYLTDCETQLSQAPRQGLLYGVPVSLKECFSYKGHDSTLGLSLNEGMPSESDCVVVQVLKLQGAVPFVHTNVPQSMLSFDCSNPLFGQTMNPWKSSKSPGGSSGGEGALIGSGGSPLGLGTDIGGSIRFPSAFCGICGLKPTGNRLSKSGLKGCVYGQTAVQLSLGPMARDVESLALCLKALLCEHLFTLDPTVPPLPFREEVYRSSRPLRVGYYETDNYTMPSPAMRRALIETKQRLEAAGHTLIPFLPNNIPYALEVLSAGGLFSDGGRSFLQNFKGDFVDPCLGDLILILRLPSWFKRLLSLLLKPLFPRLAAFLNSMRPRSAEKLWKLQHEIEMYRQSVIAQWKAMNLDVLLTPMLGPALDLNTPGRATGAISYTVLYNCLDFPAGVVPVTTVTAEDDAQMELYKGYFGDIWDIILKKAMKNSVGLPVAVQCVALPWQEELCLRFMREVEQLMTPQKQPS
Experimental: Material and Reagents: All reagents were purchased from Sigma-Aldrich unless specified. […] Chaperone protein groEL-groES in pGRO7 plasmid (Takara Bio Inc, Japan) was co-expressed with Fatty Acid Amide Hydrolase (FAAH) to improve solubility of the protein expressed in E coli. […] Briefly, the bacterial cultures in Luria Broth (2 L) were induced with arabinose (2 mM) and Isopropyl (β-D-1-thiogalactopyranoside, IPTG (1 mM), for 20 h at room temperature. The cultures were centrifuged at 1200×g for 10 min and the cell pellet was resuspended in 100 mL buffer containing of 20 mM NaPi (pH 7.4), 100 mM NaCl, Benzonase (500u), Aprotinin (1 μg/mL) and Leupeptin (1 μg/mL). Cells were lyzed by sonication (Amp 20%, Pulse 15 s×15, on ice) and the cell debris removed by centrifugation at 5000×g for 20 min. The supernatant was enriched via ultracentrifugation at 100,000×g for 1 h and the cell pellet was resuspended in 16 mL buffer containing 20 mM NaPi (pH 7.8), 500 mM NaCl, 1% Triton X-100. The resuspended cell extract was subjected to ultra-centrifugation at 100,000×g for 1 h and the enriched supernatant was used in the in vitro assay. All protein extraction steps were carried out on ice or at 4° C.
The assay was carried out in 200 μL volume in a 96-well black polystyrene plate (Greiner Bio-one, Germany). Each reaction consisted of human Fatty Acid Amide Hydrolase (FAAH) protein and 10 μM AAMCA in assay buffer containing 50 mM HEPES, 1 mM EDTA and 0.1% BSA, pH 7.4. The reaction was incubated with 2 μL of varying concentrations of inhibitor in DMSO (final concentration of DMSO 1%) with shaking for 1 min and monitored for increase in fluorescence in kinetic mode for 50 min. […] Rate of reaction as a function of the concentration of the inhibitor was used to determine the IC50 of the inhibitors. Data was analyzed using GraphPad Prism 5 (GraphPad Software Inc., San Diego, Calif.). The activity of the compounds for rat Fatty Acid Amide Hydrolase (FAAH) was evaluated as described above with rat Fatty Acid Amide Hydrolase (FAAH) protein and 10 μM AAMCA substrate.

Chain of human Fatty Acid Amide Hydrolase (FAAH) (O00519 30-579): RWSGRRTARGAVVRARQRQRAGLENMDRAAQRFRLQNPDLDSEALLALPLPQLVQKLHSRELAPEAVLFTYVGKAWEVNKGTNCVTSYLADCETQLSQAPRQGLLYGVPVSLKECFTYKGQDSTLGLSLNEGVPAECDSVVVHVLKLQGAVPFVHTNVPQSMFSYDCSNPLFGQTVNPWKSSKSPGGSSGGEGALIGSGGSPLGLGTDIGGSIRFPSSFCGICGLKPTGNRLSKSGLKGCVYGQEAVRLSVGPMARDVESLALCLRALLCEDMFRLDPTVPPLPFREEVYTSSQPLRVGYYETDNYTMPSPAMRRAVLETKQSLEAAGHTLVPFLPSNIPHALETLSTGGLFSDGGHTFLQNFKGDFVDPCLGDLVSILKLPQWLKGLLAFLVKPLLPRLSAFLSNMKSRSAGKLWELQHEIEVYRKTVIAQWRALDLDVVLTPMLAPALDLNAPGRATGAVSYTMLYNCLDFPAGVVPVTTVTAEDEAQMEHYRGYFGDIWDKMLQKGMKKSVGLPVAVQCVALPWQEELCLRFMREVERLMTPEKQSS

## Cn1cc(C(=O)NC2CCC(=Cc3cccc(Oc4ccc(C(F)(F)F)cn4)c3)CC2)cn1 (stereo not drawn) [Example 2.A-18, 1-Methyl-N-[4-[[3-[[5-(trifluoromethyl)-2-pyridyl]oxy]phenyl]methylene]cyclohexyl]pyrazole-4-carboxamide]
[1]; human FAAH
  inhibition at 0.1 µM: 45%
[2]
  inhibition at 0.1 µM: 38%

## O=C(NC1CCC(=Cc2cccc(Oc3ccc(C(F)(F)F)cn3)c2)CC1)c1cn[nH]n1 (stereo not drawn) [Example 2.A-19, N-[4-[[3-[[5-(Trifluoromethyl)-2-pyridyl]oxy]phenyl]methylene]cyclohexyl]-2H-triazole-4-carboxamide]
[1]; human FAAH
  IC50: 6 nM
[2]
  IC50: 145 nM

## Cc1nnc(C(=O)NC2CCC(=Cc3cccc(Oc4ccc(C(F)(F)F)cn4)c3)CC2)o1 (stereo not drawn) [Example 2.A-20, 5-Methyl-N-[4-[[3-[[5-(trifluoromethyl)-2-pyridyl]oxy]phenyl]methylene]cyclohexyl]-1,3,4-oxadiazole-2-carboxamide]
[1]; human FAAH
  IC50: 334 nM
[2]
  rFAAH % inhibition at 100 nM: No inhibition at 100 nM

## O=C(NC1CCC(=Cc2cccc(Oc3ccc(C(F)(F)F)cn3)c2)CC1)c1ccc(Cl)nc1 (stereo not drawn) [Example 2.A-22, 6-Chloro-N-[4-[[3-[[5-(trifluoromethyl)-2-pyridyl]oxy]phenyl]methylene]cyclohexyl]pyridine-3-carboxamide]
[1]; human FAAH
  IC50: 5 nM
[2]
  IC50: 81 nM

## Cc1[nH]ncc1C(=O)NC1CCC(=Cc2cccc(Oc3ccc(C(F)(F)F)cn3)c2)CC1 (stereo not drawn) [Example 2.A-23, 5-Methyl-N-[4-[[3-[[5-(trifluoromethyl)-2-pyridyl]oxy]phenyl]methylene]cyclohexyl]-1H-pyrazole-4-carboxamide]
[1]; human FAAH
  IC50: 5 nM
[2]
  IC50: 29 nM

## CN(C)c1ccc(C(=O)NC2CCC(=Cc3cccc(Oc4ccc(C(F)(F)F)cn4)c3)CC2)cn1 (stereo not drawn) [Example 2.A-24, 6-(Dimethylamino)-N-[4-[[3-[[5-(trifluoromethyl)-2-pyridyl]oxy]phenyl]methylene]cyclohexyl]pyridine-3-carboxamide]
[1]
  IC50: 9 nM
[2]
  inhibition at 0.1 µM: 31%

## O=C(NC1CCC(=Cc2cccc(Oc3ccc(C(F)(F)F)cn3)c2)CC1)c1cccnc1Cl (stereo not drawn) [Example 2.A-25, 2-Chloro-N-[4-[[3-[[5-(trifluoromethyl)-2-pyridyl]oxy]phenyl]methylene]cyclohexyl]pyridine-3-carboxamide]
[1]
  IC50: 16 nM
[2]
  rFAAH % inhibition at 100 nM: No inh at 100 nM

## O=C(NC1CCC(=Cc2cccc(Oc3ccc(C(F)(F)F)cn3)c2)CC1)c1cccnc1F (stereo not drawn) [Example 2.A-26, 2-Fluoro-N-[4-[[3-[[5-(trifluoromethyl)-2-pyridyl]oxy]phenyl]methylene]cyclohexyl]pyridine-3-carboxamide]
[1]
  IC50: 5 nM
[2]
  IC50: 84 nM

## N#Cc1ccc(C(=O)NC2CCC(=Cc3cccc(Oc4ccc(C(F)(F)F)cn4)c3)CC2)cn1 (stereo not drawn) [Example 2.A-27, 6-Cyano-N-[4-[[3-[[5-(trifluoromethyl)-2-pyridyl]oxy]phenyl]methylene]cyclohexyl]pyridine-3-carboxamide]
[1]; human FAAH
  IC50: 55 nM
[2]
  inhibition at 0.1 µM: 27%

## Cc1ncccc1C(=O)NC1CCC(=Cc2cccc(Oc3ccc(C(F)(F)F)cn3)c2)CC1 (stereo not drawn) [Example 2.A-28, 2-Methyl-N-[4-[[3-[[5-(trifluoromethyl)-2-pyridyl]oxy]phenyl]methylene]cyclohexyl]pyridine-3-carboxamide]
[1]; human FAAH
  IC50: 31 nM
[2]
  rFAAH % inhibition at 100 nM: No inhibition at 100 nM

## O=C(NC1CCC(=Cc2cccc(Oc3ccc(C(F)(F)F)cn3)c2)CC1)c1c[nH]nc1C(F)(F)F (stereo not drawn) [Example 2.A-29, 3-(Trifluoromethyl)-N-[4-[[3-[[5-(trifluoromethyl)-2-pyridyl]oxy]phenyl]methylene]cyclohexyl]-1H-pyrazole-4-carboxamide]
[1]
  IC50: 3 nM
[2]
  IC50: 24 nM

## Cc1cncc(C(=O)NC2CCC(=Cc3cccc(Oc4ccc(C(F)(F)F)cn4)c3)CC2)c1 (stereo not drawn) [Example 2.A-30, 5-Methyl-N-[4-[[3-[[5-(trifluoromethyl)-2-pyridyl]oxy]phenyl]methylene]cyclohexyl]pyridine-3-carboxamide]
[1]
  IC50: 5 nM
[2]
  IC50: 14 nM

## O=C(NC1CCC(=Cc2cccc(Oc3ccc(C(F)(F)F)cn3)c2)CC1)c1cncc(Cl)c1 (stereo not drawn) [Example 2.A-32, 5-Chloro-N-[4-[[3-[[5-(trifluoromethyl)-2-pyridyl]oxy]phenyl]methylene]cyclohexyl]pyridine-3-carboxamide]
[1]; human FAAH
  IC50: 6 nM
[2]
  inhibition at 0.1 µM: 40%

## O=C(NC1CCC(=Cc2cccc(Oc3ccc(C(F)(F)F)cn3)c2)CC1)c1ccccc1 (stereo not drawn) [Example 2.A-34, N-[4-[[3-[[5-(Trifluoromethyl)-2-pyridyl]oxy]phenyl]methylene]cyclohexyl]benzamide]
[1]; human FAAH
  IC50: 18 nM
[2]; read-out: rFAAH % inhibition at 1 μM, 1 μM
  inhibition at 1 µM: 50%

## Cc1n[nH]c(C)c1C(=O)NC1CCC(=Cc2cccc(Oc3ccc(C(F)(F)F)cn3)c2)CC1 (stereo not drawn) [Example 2.A-35, 3,5-Dimethyl-N-[4-[[3-[[5-(trifluoromethyl)-2-pyridyl]oxy]phenyl]methylene]cyclohexyl]-1H-pyrazole-4-carboxamide]
[1]
  IC50: 29 nM
[2]
  inhibition at 0.1 µM: 38%

## Cc1ccc(C(=O)NC2CCC(=Cc3cccc(Oc4ccc(C(F)(F)F)cn4)c3)CC2)c(C)n1 (stereo not drawn) [Example 2.A-37, 2,6-Dimethyl-N-[4-[[3-[[5-(trifluoromethyl)-2-pyridyl]oxy]phenyl]methylene]cyclohexyl]pyridine-3-carboxamide]
[1]; human FAAH
  IC50: 57 nM
[2]
  rFAAH % inhibition at 100 nM: No inhibition at 100 nM

## Cc1n[nH]c(C(C)C)c1C(=O)NC1CCC(=Cc2cccc(Oc3ccc(C(F)(F)F)cn3)c2)CC1 (stereo not drawn) [Example 2.A-38, 5-Isopropyl-3-methyl-N-[4-[[3-[[5-(trifluoromethyl)-2-pyridyl]oxy]phenyl]methylene]cyclohexyl]-1H-pyrazole-4-carboxamide]
[1]; human FAAH
  inhibition at 0.1 µM: 20%
[2]
  inhibition at 0.1 µM: 54%

## CC(C)c1[nH]ncc1C(=O)NC1CCC(=Cc2cccc(Oc3ccc(C(F)(F)F)cn3)c2)CC1 (stereo not drawn) [Example 2.A-39, 5-Isopropyl-N-[4-[[3-[[5-(trifluoromethyl)-2-pyridyl]oxy]phenyl]methylene]cyclohexyl]-1H-pyrazole-4-carboxamide]
[1]; human FAAH
  IC50: 63 nM
[2]
  IC50: 30 nM

## O=C(NC1CCC(=Cc2cccc(Oc3ccc(C(F)(F)F)cn3)c2)CC1)c1ccc(C2CC2)nc1 (stereo not drawn) [Example 2.A-42, 6-Cyclopropyl-N-[4-[[3-[[5-(trifluoromethyl)-2-pyridyl]oxy]phenyl]methylene]cyclohexyl]pyridine-3-carboxamide]
[1]; human FAAH
  IC50: 13 nM
[2]
  IC50: 14 nM

## CCc1ccc(C(=O)NC2CCC(=Cc3cccc(Oc4ccc(C(F)(F)F)cn4)c3)CC2)cn1 (stereo not drawn) [Example 2.A-43, 6-Ethyl-N-[4-[[3-[[5-(trifluoromethyl)-2-pyridyl]oxy]phenyl]methylene]cyclohexyl]pyridine-3-carboxamide]
[1]; human FAAH
  IC50: 4 nM
[2]
  IC50: 18 nM

## O=C(NC1CCC(=Cc2cccc(Oc3ccc(C(F)(F)F)cn3)c2)CC1)c1ccc(-c2cc[nH]n2)nc1 (stereo not drawn) [Example 2.B-4, 6-(1H-Pyrazol-3-yl)-N-[4-[[3-[[5-(trifluoromethyl)-2-pyridyl]oxy]phenyl]methylene]cyclohexyl]pyridine-3-carboxamide]
[1]; human FAAH
  IC50: 2 nM
[2]
  IC50: 11 nM

## O=C(NC1CCC(=Cc2cccc(Oc3ccc(C(F)(F)F)cn3)c2)CC1)c1ccc(-c2cn[nH]c2)nc1 (stereo not drawn) [Example 2.B-5, 6-(1H-Pyrazol-4-yl)-N-[4-[[3-[[5-(trifluoromethyl)-2-pyridyl]oxy]phenyl]methylene]cyclohexyl]pyridine-3-carboxamide]
[1]; human FAAH
  IC50: 2 nM
[2]
  IC50: 9 nM

## Cc1cnn(-c2ccc(C(=O)NC3CCC(=Cc4cccc(Oc5ccc(C(F)(F)F)cn5)c4)CC3)cn2)c1 (stereo not drawn) [Example 2.B-6, 6-(4-Methylpyrazol-1-yl)-N-[4-[[3-[[5-(trifluoromethyl)-2-pyridyl]oxy]phenyl]methylene]cyclohexyl]pyridine-3-carboxamide]
[1]; human FAAH
  IC50: 7 nM
[2]
  IC50: 21 nM

## O=C(NC1CCC(=Cc2cccc(Oc3ccc(C(F)(F)F)cn3)c2)CC1)c1cncc(-n2cccn2)c1 (stereo not drawn) [Example 2.B-7, 5-Pyrazol-1-yl-N-[4-[[3-[[5-(trifluoromethyl)-2-pyridyl]oxy]phenyl]methylene]cyclohexyl]pyridine-3-carboxamide]
[1]; human FAAH
  IC50: 6 nM
[2]
  IC50: 85 nM
